# Legend:
# systolic blood pressure [1] = assay: systolic blood pressure (SBP) by tail plethysmography, rats on 30% fat / sucrose diet; format: in vivo, Sprague-Dawley Rats; conditions: for lowering of SBP: end of 8 weeks
# Description: (§1) A known effect of ACE inhibitors is a reduction in elevated systolic blood pressure. To test this, the following protocol was employed: Sprague-Dawley Rats (SD), approximately 8 weeks of age were obtained. Six groups of eight male SD received the same standard rat chow manufactured to specifications. The special diets derived 30% of calories from fats (one half from lard and one half from corn oil), 50% from carbohydrates, and 20% from proteins. Twenty percent of dietary calories was derived from sucrose and the preponderance of the remaining carbohydrate calories was derived from dextrin. During weekdays (M-F), each group was gavaged twice daily with a solution containing a commercial source of potassium hydroxycitrate (KHCA), a commercial source of potassium-calcium hydroxycitrate (KCaHCA), or a pre-commercial non-salt source of potassium-magnesium hydroxycitrate (KMgHCA, listed as KMgHCA L-Low, M-Intermediate or H-High depending upon the dose). Over the weekends (S-S), a similar quantity of the weekday daily dose was added to twenty grams of food, that is, an amount of food estimated to be close to the daily intake of the animals. At initiation of study and four weeks, and eight weeks later, bloods were drawn from all SD for routine blood chemistries. Body weight (BW) was measured weekly and systolic blood pressure (SBP) was measured every two weeks.
# The HCA dosages in the arms varied. The dosage used in the KHCA arm was extrapolated from the recommended 1,500 mg HCA per day for humans consuming a normal diet (i.e., ≧30% calories derived from fats) advocated by a commercial seller of KHCA and claimed to have produced acceptable clinical results. The approximate equivalent for the rat model is 35.4 mg HCA per day, which we increased to 38.4 mg HCA per day for convenience in employing a 48% HCA potassium salt and to remain safely on the high side in practice. For the sake of comparison, a commercial KCaHCA salt (60% HCA) was chosen and delivered at an HCA dosage level of 48 mg per day, which slightly exceeded the lowest dosage of HCA found to be efficacious for inhibition of weight gain in rats in the early pharmaceutical trials (45.4 mg/day) using pure trisodium hydroxycitrate and a very low fat diet. The design thus utilized a realistic diet with rough equivalents of the HCA dosages claimed to be effective in both the human and rat models.
# The experimental KMgHCA dosings varied considerably from that of the other two salts. […] As a result, the recalculated HCA doses for the experimental compound were a low dose (KMgHCA L) of 14 mg, an intermediate dose (KMgHCA M) of 28 mg and a high dose (KMgHCA H) of 84 mg per day. The difficulty in calculating the HCA content in this case is not unique inasmuch as there is as of yet no universally accepted method for calculating the HCA content of the various salts. Again, preparations yielded the equivalent of 48 mg HCA per day from KCaHCA and 38.4 mg HCA per day from KHCA.
# (§2) Systolic Blood Pressure (SBP): SBP was estimated by tail plethysmography in unanesthetized rats after a brief warming period. Readings were taken approximately one minute apart. To be accepted, SBP measurements had to be virtually stable for a minimum of three consecutive readings.
# (§3) Statistical Analyses: Results are presented as mean±SEM. Many statistics were performed by one-way analysis of variance (ANOVA). SBP and BW were examined by two-way analyses of variance (one factor being dietary group and the second factor being time of examination). Where a significant effect of diet was detected by ANOVA (p<0.05), the Dunnett t test was used to establish which differences between means reached statistical significance (p<0.05). If a Student's t test was employed, this is noted.
# [2] = body weight in the C-reactive protein study; format: in vivo, rats; conditions: by week 6; salt 76 mg/day
# Description: (§4) To test the properties of HCA in various forms under conditions similar to those found in human clinical trials, the inventor arranged for rats to be fed a diet in which 30% of the calories were obtained from fat under standard conditions, with a further approximately 20% of the calories being supplied as simple sugars. Such a dietary combination of fat and simple sugars is noted as promoting a variety of metabolic imbalances and dysfunctions. The rats were intubated twice daily with one of five HCA salts or placebo. On weekends, the HCA was added to the food at an approprate dosage. The amount of HCA in each arm of 8 animals was based on the minimum dosage which had been found effective in the form of the pure trisodium salt of HCA in tests by Hoffmann-La Roche in animals ingesting a 70% glucose diet, i.e., 0.33 mmoles/kg body weight HCA given twice per day. The HCA salts used were these: KCaHCA=a mixed potassium and calcium or double metal HCA salt commercially marketed as being entirely water soluble and of relatively high purity; KHCA=a relatively clean commercial potassium salt of HCA with a good mineral ligand attachment supplying 4467 mg potassium/100 grams of material; KMgHCA=three different dosage levels of an experimental potassium and magnesium salt with special characteristics, but suspected of being relatively unstable when exposed to stomach acid. […]
# insulin = assay: circulating insulin concentrations; format: in vivo, Sprague-Dawley Rats; conditions: for average insulin concentrations vs control: not significant using ANOVA
# Description: as §1, §3
# systolic blood pressure [3] = assay: earlier study of SBP not described here; format: in vivo; conditions: 120 mg HCA per day
# C-reactive protein = assay: serum C-reactive protein, rats on 30% fat / simple sugar diet; format: in vivo; set-up: key to CRP Modulation: ** = significant; conditions: for Δ OD units after 4 wks: serum CRP, 1 unit equals 50 picograms/mL
# Description: To test the properties of HCA in various forms under conditions similar to those found in human clinical trials, the inventor arranged for rats to be fed a diet in which 30% of the calories were obtained from fat under standard conditions, with a further approximately 20% of the calories being supplied as simple sugars. Such a dietary combination of fat and simple sugars is noted as promoting a variety of metabolic imbalances and dysfunctions. The rats were intubated twice daily with one of five HCA salts or placebo. On weekends, the HCA was added to the food at an approprate dosage. The amount of HCA in each arm of 8 animals was based on the minimum dosage which had been found effective in the form of the pure trisodium salt of HCA in tests by Hoffmann-La Roche in animals ingesting a 70% glucose diet, i.e., 0.33 mmoles/kg body weight HCA given twice per day. The HCA salts used were these: KCaHCA=a mixed potassium and calcium or double metal HCA salt commercially marketed as being entirely water soluble and of relatively high purity; KHCA=a relatively clean commercial potassium salt of HCA with a good mineral ligand attachment supplying 4467 mg potassium/100 grams of material; KMgHCA=three different dosage levels of an experimental potassium and magnesium salt with special characteristics, but suspected of being relatively unstable when exposed to stomach acid. The KCaHCA and KHCA salts were 60% HCA delivered at the rate of approximately 76 mg/day. The KMgHCA salts were delivered at the rate of 76 mg/day (r), 38 mg/day (l) and 228 mg/day (h), but due to initial miscalculations of the water of crystallization, this salt was only 45% HCA rather than 60%. The proper dosage for the KMgHCA(r) should have been 100 mg/day; the half dose (I) should have been 50 mg/day, and the triple dose (h) should have been 300 mg/day to match the commercial salts.
# Tests were performed for C-reactive protein. Data was obtained for the animals at start and then at week 4 based on serum. Optical Density (OD) readings in the test kit used were 1 unit equals 50 picograms/mL. The delta changes over the 4 weeks for each arm vs control are shown.
# [4] = rats; diet of 70% glucose and 1% fat; cited from earlier work
# systolic blood pressure [5] = assay: SBP in SHR on rat chow / table sugar diet; format: in vivo, Spontaneously hypertensive rats (SHR); conditions: 100 mg HCA per day in food; over three weeks
# Protocol: as §2
# (§5) Spontaneously hypertensive rats (SHR) were placed on a diet composed of regular rat chow (60% w/w) and table sugar (40% w/w). This diet reliably elevates blood pressure in this animal model. One group received 100 mg HCA per day in the form of a new potassium-magnesium hydroxycitrate (different from that used in Example 1) via an added 5 g HCA per kg of food mix. Systolic blood pressure and body weight were tested as in Example 1 on a weekly basis.
# [6] = body weight in SHR on rat chow / table sugar diet; format: in vivo, Spontaneously hypertensive rats (SHR); conditions: 100 mg HCA per day in food; over three weeks
# Protocol: as §5
# [7] = glucose tolerance test with 0.1 unit regular insulin injected along with glucose; format: in vivo, Spontaneously hypertensive rats (SHR); conditions: at 7.5 minutes; 100 mg HCA per day in food
# Protocol: This was viewed as likely positive in that rats gain weight steadily as long as they remain in good health and the SHR at middle age, as used here, lives a relatively short life and its health deteriorates as its blood pressure rises. […] A glucose tolerance test was administered in which 0.1 unit of regular insulin was injected along with glucose. […] This finding indicates increased insulin sensitivity. (FIG. 6)
# TNF-α = assay: TNF-α, rats on 30% fat / simple sugar diet; format: in vivo; conditions: eight weeks
# Description: as §4
# ACE system = assay: response of SBP to losartan challenge; format: in vivo, Spontaneously hypertensive rats (SHR); conditions: at 6 hours; control SHR without HCA
# Description: Many factors can positively influence blood pressure, e.g., diuretics, antioxidants, regulators of sympathetic/parasympathetic tone, compounds that improve insulin sensitivity and so forth. Therefore, losartan, an angiotensin-2 receptor blocker, was utilized to discover whether the ACE system was involved in the results discussed in Example 1.
# as §5
# When losartan was injected, the SBP of both groups decreased. At 6 hours, the SBP were essentially the same. […] Thus, HCA appears to decrease angiotensin-2 in rats and to lower elevated SBP. Although insulin regulation likely is a factor in the blood pressure modulating effect of HCA, this evidence argues that inhibition of ACE is also important. […]
# [8] = pilot open clinical weight loss trial with extremely obese patients; format: in vivo, human
# Description: A multi-week pilot open clinical weight loss trial with extremely obese patients was planned to gauge the effects of a pouch delivery form of a potassium salt of (−)-hydroxycitrate under the normal circumstances faced in clinical practice with this patient population. Fourteen patients were enrolled, three of whom were diabetics on medications and several others who were suspected of suffering from insulin resistance. The patients ingested 3-4 grams of HCA per day in two divided doses. Aside from being informed that they must eat a carbohydrate-containing meal within one hour of taking the HCA and that they should avoid eating late in the day, they were not instructed to follow any special diet or exercise plan outside their normal habits and no caloric restriction was imposed. This particular form of potassium (−)-hydroxycitrate delivery typically was mixed into water or juice and consumed at mid-morning and mid-afternoon. The delivery was a water-soluble immediate release form. […] A number of patients continued on the program for 6 weeks. However, comparative data was good for only 3 weeks because two of the diagnosed diabetics experienced hypoglycemic reactions. Several other patients experienced good appetite suppression, yet also complained off episodic tiredness at the beginning of the program, a sign of low blood sugar. Two patients subsequently were placed on phentermine. […] The average weight loss over the 3 week period for these patients was approximately 3 pounds per person per week. […] At therapeutically effective dosages, HCA probably should be used with diabetic populations only under a physician's care.
smiles,measurement,setting,value
"O=C([O-])CC(O)(C(=O)[O-])C(O)C(=O)[O-].[Ca+2].[K+] (stereo not drawn) [KCaHCA, potassium-calcium hydroxycitrate]",SBP compared to control,"systolic blood pressure [1]; end of eight weeks, 48 mg HCA per day",significant decreases in SBP compared to control
same,"body weight, trend difference from control",[2],greatest trend differences
same,trend of circulating insulin,insulin; 48 mg HCA per day,did not show a trend toward lower circulating insulin
same,SBP,systolic blood pressure [3],decrease in SBP
same,"change in CRP compared with control, significance","C-reactive protein; 4 wks, salt 76 mg/day",failed to yield significant results
same,Δ OD units after 4 wks,C-reactive protein; salt 76 mg/day,56 OD units
O=C([O-])CC(O)(C(=O)[O-])C(O)C(=O)[O-].[Na+].[Na+].[Na+] (stereo not drawn) [trisodium hydroxycitrate],lowest dose shown to be efficacious in reducing weight gain,[4],0.33 mmol/kg twice a day
"O=C([O-])CC(O)(C(=O)[O-])C(O)C(=O)[O-].[K+].[Mg+2] (stereo not drawn) [KMgHCA, potassium-magnesium hydroxycitrate]",SBP change from baseline,systolic blood pressure [5],decrease in SBP from baseline
same,SBP compared to control,"systolic blood pressure [1]; course of study, low dose 14 mg HCA per day",below the threshold for effect
same,lowering of SBP,systolic blood pressure [1]; high dose 84 mg HCA per day,over 10 mm Hg
same,lowering of SBP,systolic blood pressure [1]; intermediate dose 28 mg HCA per day,over 10 mm Hg
same,SBP compared to control,"systolic blood pressure [1]; end of eight weeks, high dose 84 mg HCA per day",significant decreases in SBP compared to control
same,SBP compared to control,"systolic blood pressure [1]; end of eight weeks, intermediate dose 28 mg HCA per day",significant decreases in SBP compared to control
same,body weight,[6],trend for an increase in body weight
same,rise in glucose appearance in bloodstream,[7],significantly lesser rise in glucose appearance in bloodstream
same,"insulin, control versus arm alone, Student's t test",insulin; 84 mg HCA per day,at the margin of significance
same,average insulin concentrations vs control,"insulin; all KMgHCA groups (14, 28, 84 mg HCA per day)",lower
same,CRP Modulation,"C-reactive protein; 4 wks, salt 38 mg/day",**
same,CRP Modulation,"C-reactive protein; 4 wks, salt 76 mg/day",**
same,CRP Modulation,"C-reactive protein; 4 wks, salt 228 mg/day",**
same,Δ OD units after 4 wks,C-reactive protein; salt 38 mg/day,33 OD units
same,Δ OD units after 4 wks,C-reactive protein; salt 76 mg/day,−145 OD units
same,Δ OD units after 4 wks,C-reactive protein; salt 228 mg/day,−11.3 OD units
same,"TNF-α, simple t test versus control",TNF-α; intermediate dose,significance
same,"TNF-α, simple t test versus control",TNF-α; low dose,significance
"CCCCc1nc(Cl)c(CO)n1Cc1ccc(-c2ccccc2-c2nn[nH]n2)cc1 [losartan, reference compound]",decrease in SBP after losartan injection,ACE system,−50±6.1
"O=C([O-])CC(O)(C(=O)[O-])C(O)C(=O)[O-].[K+].[K+].[K+] (stereo not drawn) [KHCA, potassium hydroxycitrate]",SBP compared to control,"systolic blood pressure [1]; end of eight weeks, 38.4 mg HCA per day",significant decreases in SBP compared to control
same,"body weight, trend difference from control",[2],greatest trend differences
same,"insulin, control versus arm alone, Student's t test",insulin; 38.4 mg HCA per day,showed significance
same,average insulin concentrations vs control,insulin; 38.4 mg HCA per day,lower
same,CRP Modulation,"C-reactive protein; 4 wks, salt 76 mg/day",**
same,Δ OD units after 4 wks,C-reactive protein; salt 76 mg/day,−155 OD units
O=C([O-])CC(O)(C(=O)[O-])C(O)C(=O)[O-].[K+].[K+].[K+] (stereo not drawn) [potassium (−)-hydroxycitrate],average weight loss,"[8]; 3-4 grams of HCA per day in two divided doses, over the 3 week period",approximately 3 pounds per person per week
same,tolerability,[8]; apart from inconvenience and poor taste,no other issues of tolerability
same,hypoglycemic effect,"[8]; immediate release format, diabetics, 3-4 grams of HCA per day",strong hypoglycemic effect in diabetics
same,weight loss,"[8]; one patient, over 10 weeks",32 pounds

# — patent US20060025483A1, “(-)-Hydroxycitric acid for protection against soft tissue and arterial calcification” (priority 2004, published 2006)
